# Tested on: NCI-H929 multiple myeloma cells
# Experiment: Cell Titer-GLO (CTG) assay for proliferation of NCI-H929 cells
# Assay type: cell-based
# Details: Homo sapiens, 72 hours
# Procedure: 1. Experimental objective: To determine inhibitory activities of compounds on NCI-H929 multiple myeloma cells.
# NCI-H929 cells, purchased from Nanjing Cobioer Biotechnology Co., Ltd, were cultured in RPM11640 (Viva; C3010-0500) medium containing 10% fetal bovine serum (Viva, C04002-500) and 1% of penicillin-streptomycin at 37° C. with 5% of C02 and saturated humidity conditions.
# The cells in logarithmic growth phase were plated at 5000 cells per well of a 96-well plate and after overnight incubation, compounds at 0.00512 nM, 0.0256 nM, 0.128 nM, 0.64 nM, 3.2 nM, 16 nM, 80 nM, and 400 nM were dosed into the plate with each dose in 2 duplicate wells. Cells were incubated at 37° C., 5% CO2 for 72 hours. After the incubation, the plate was placed at room temperature for half an hour, and then 50 μL of Cell Titer-Glo® (Promega, G7573) was added. The plate was placed on a shaker for uniform mixing for 2 minutes and was placed in the dark at room temperature for 10 minutes. The luminance signal was measured using SpectraMax Paradigm (Molecular Devices).
# Cell activity inhibition rate (%)=1 00−(RLUcompound−RLUblank)/(RLUcontrol−RLUblank)×100%, where control refers to the 0.1% DMSO treatment group, and blank refers to the culture medium control. IC50 values and maximum inhibition rates of the compounds were calculated using a nonlinear regression function “Dose-Response-Inhibition” in Graphpad Prism 7.0.
row,IC50 [pM],SMILES
1,100,"O=C1CC[C@H](N2Cc3c(OCc4ccc(CN5CCN([C@H]6CC[C@H](NC(=O)c7ccnc(-n8ccnc8)n7)CC6)CC5)cc4)cccc3C2=O)C(=O)N1 [Example 15, N-((1R,4R)-4-(4-(4-(((2-((S)-2,6-dioxopiperidin-3-yl)-1-oxoisoindolin-4-yl)oxy)methyl)benzyl)piperazin-1-yl)cyclohexyl)-2-(1H-imidazol-1-yl)pyrimidin-4-carboxamide]"
2,6,"Cc1ncn(-c2nccc(N3CCN(Cc4ccc(Cc5ccc6c7c(cccc57)C(=O)N6C5CCC(=O)NC5=O)cc4)CC3)n2)n1 (centres unmarked) [Example 41, 3-(6-(4-((4-(2-(3-methyl-1H-1,2,4-triazol-1-yl)pyrimidin-4-yl)piperazin-1-yl)methyl)benzyl)-2-oxobenzo[cd]indol-1(2H)-yl)piperidin-2,6-dione]"
3,10,"Cc1nnc(-c2ncc(F)c(N3CCN(Cc4ccc(Cc5ccc6c7c(cccc57)C(=O)N6C5CCC(=O)NC5=O)cc4)CC3)n2)s1 (centres unmarked) [Example 42, 3-(6-(4-((4-(5-fluoro-2-(5-methyl-1,3,4-thiadiazol-2-yl)pyrimidin-4-yl)piperazin-1-yl)methyl)benzyl)-2-oxobenzo[cd]indol-1(2H)-yl)piperidin-2,6-dione]"
4,4,"Cc1nc(N2CCN(C3CN(Cc4ccc(Cc5ccc6c7c(cccc57)C(=O)N6C5CCC(=O)NC5=O)cc4)C3)CC2)cc(-n2cnc(C(F)(F)F)c2)n1 (centres unmarked) [Example 54, 3-(6-(4-((3-(4-(2-methyl-6-(4-(trifluoromethyl)-1H-imidazol-1-yl)pyrimidin-4-yl)piperazin-1-yl)azetidin-1-yl)methyl)benzyl)-2-oxobenzo[cd]indol-1(2H)-yl)piperidin-2,6-dione]"
5,10,"O=C1CCC(N2C(=O)c3cccc4c(Cc5ccc(CN6CCN(C7CCN(c8ccnc(-n9cnc(C(F)(F)F)c9)n8)CC7)CC6)cc5)ccc2c34)C(=O)N1 (centres unmarked) [Example 40, 3-(2-oxo-6-(4-((4-(1-(2-(4-(trifluoromethyl)-1H-imidazol-1-yl)pyrimidin-4-yl)piperidin-4-yl)piperazin-1-yl)methyl)benzyl)benzo[cd]indol-1(2H)-yl)piperidin-2,6-dione]"
6,70,"O=C1CCC(N2C(=O)c3cccc4c(Cc5ccc(CN6CCN(c7ccnc(-n8ccnc8C(F)(F)F)n7)CC6)cc5)ccc2c34)C(=O)N1 (centres unmarked) [Example 13, 3-(2-oxo-6-(4-((4-(2-(2-(trifluoromethyl)-1H-imidazol-1-yl)pyrimidin-4-yl)piperazin-1-yl)methyl)benzyl)benzo[cd]indol-1(2H)-yl)piperidin-2,6-dione]"
7,100,"O=C1CCC(N2C(=O)c3cccc4c(Cc5ccc(CN6CCN(c7cc(C(F)(F)F)nc(-n8cnc(Cl)c8)n7)CC6)cc5)ccc2c34)C(=O)N1 (centres unmarked) [Example 74, 3-(6-(4-((4-(2-(4-chloro-1H-imidazol-1-yl)-6-(trifluoromethyl)pyrimidin-4-yl)piperazin-1-yl)methyl)benzyl)-2-oxobenzo[cd]indol-1(2H)-yl)piperidin-2,6-dione]"
8,100,"CC(C)n1cnnc1-c1cccc(N2CCN(Cc3ccc(Cc4ccc5c6c(cccc46)C(=O)N5C4CCC(=O)NC4=O)cc3)CC2)n1 (centres unmarked) [Example 24, 3-(6-(4-((4-(6-(4-isopropyl-4H-1,2,4-triazol-3-yl)pyridin-2-yl)piperazin-1-yl)methyl)benzyl)-2-oxobenzo[cd]indol-1(2H)-yl)piperidin-2,6-dione]"
9,30,"Cc1ncn(-c2cccc(N3CCN(Cc4ccc(Cc5ccc6c7c(cccc57)C(=O)N6[C@@H]5CCC(=O)NC5=O)cc4)CC3)n2)n1 [Example 38, (R)-3-(6-(4-((4-(6-(3-methyl-1H-1,2,4-triazol-1-yl)pyridin-2-yl)piperazin-1-yl)methyl)benzyl)-2-oxobenzo[cd]indol-1(2H)-yl)piperidin-2,6-dione]"
10,20,"O=C1CCC(N2C(=O)c3cccc4c(Cc5ccc(CN6CCN(c7ccnc(-c8cccnc8)n7)CC6)cc5)ccc2c34)C(=O)N1 (centres unmarked) [Example 64, 3-(2-oxo-6-(4-((4-(2-(pyridin-3-yl)pyrimidin-4-yl)piperazin-1-yl)methyl)benzyl)benzo[cd]indol-1(2H)-yl)piperidin-2,6-dione]"
11,70,"Cc1cc(C(=O)NC2CCN(Cc3ccc(Cc4ccc5c6c(cccc46)C(=O)N5C4CCC(=O)NC4=O)cc3)CC2)nc(-n2ccnc2)n1 (centres unmarked) [Example 12, N-(1-(4-((1-(2,6-dioxopiperidin-3-yl)-2-oxo-1,2-dihydrobenzo[cd]indol-6-yl)methyl)benzyl)piperidin-4-yl)-2-(1H-imidazol-1-yl)-6-methylpyrimidin-4-carboxamide]"
12,30,"Cc1cc(N2CCN(Cc3ccc(Cc4ccc5c6c(cccc46)C(=O)N5C4CCC(=O)NC4=O)cc3)CC2)nc(-n2ccnc2)n1 (centres unmarked) [Example 10, 3-(6-(4-((4-(2-(1H-imidazol-1-yl)-6-methylpyrimidin-4-yl)piperazin-1-yl)methyl)benzyl)-2-oxobenzo[cd]indol-1(2H)-yl)piperidin-2,6-dione]"
13,300,"O=C1CC[C@H](N2Cc3c(OCc4ccc(CN5CCN(c6cccc(-c7cncs7)n6)CC5)cc4)cccc3C2=O)C(=O)N1 [Example 19, (S)-3-(1-oxo-4-((4-((4-(6-(thiazol-5-yl)pyridin-2-yl)piperazin-1-yl)methyl)benzyl)oxy)isoindolin-2-yl)piperidin-2,6-dione]"
14,100,"Cc1nc(N2CCN(Cc3ccc(Cc4ccc5c6c(cccc46)C(=O)N5C4CCC(=O)NC4=O)cc3)CC2)cc(-n2cnc(C(F)(F)F)n2)n1 (centres unmarked) [Example 70, 3-(6-(4-((4-(2-methyl-6-(3-(trifluoromethyl)-1H-1,2,4-triazol-1-yl)pyrimidin-4-yl)piperazin-1-yl)methyl)benzyl)-2-oxobenzo[cd]indol-1(2H)-yl)piperidin-2,6-dione]"
15,100,"O=C1CCC(N2C(=O)c3cccc4c(Cc5ccc(CN6CCC(O[C@H]7CC[C@@H](NC(=O)c8cccc(-n9ccnc9)n8)CC7)CC6)cc5)ccc2c34)C(=O)N1 (some centres unmarked) [Example 27, N-((1s,4s)-4-((1-(4-((1-(2,6-dioxopiperidin-3-yl)-2-oxo-1,2-dihydrobenzo[cd]indol-6-yl)methyl)benzyl)piperidin-4-yl)oxy)cyclohexyl)-6-(1H-imidazol-1-yl)pyridin-2-carboxamide]"
16,60,"O=C1CCC(N2C(=O)c3cccc4c(Cc5ccc(CN6CCN(c7ccnc(-n8cnc(C9CC9)c8)n7)CC6)cc5)ccc2c34)C(=O)N1 (centres unmarked) [Example 26, 3-(6-(4-((4-(2-(4-cyclopropvl-1H-imidazol-1-yl)pyrimidin-4-yl)piperazin-1-yl)methyl)benzyl)-2-oxobenzo[cd]indol-1(2H)-yl)piperidin-2,6-dione]"
17,100,"Cc1ncn(-c2cccc(N3CCN(Cc4ccc(COc5cccc6c5CN([C@H]5CCC(=O)NC5=O)C6=O)cc4)CC3)n2)n1 [Example 66, (S)-3-(4-((4-((4-(6-(3-methyl-1H-1,2,4-triazol-1-yl)pyridin-2-Vl)piperazin-1-yl)methyl)benzyl)oxy)-1-oxoisoindolin-2-yl)piperidin-2,6-dione]"
18,10,"Cc1nnc(-c2cccc(N3CCN(Cc4ccc(Cc5ccc6c7c(cccc57)C(=O)N6[C@H]5CCC(=O)NC5=O)cc4)CC3)n2)s1 [Example 35, (S)-3-(6-(4-((4-(6-(5-methyl-1,3,4-thiadiazol-2-yl)pyridin-2-yl)piperazin-1-yl)methyl)benzyl)-2-oxobenzo[cd]indol-1(2H)-yl)piperidin-2,6-dione]"
19,20,"[2H]C([2H])(c1ccc(Cc2ccc3c4c(cccc24)C(=O)N3C2CCC(=O)NC2=O)cc1)N1CCN(c2cc(-n3cnc(C(F)(F)F)c3)nc(C)n2)CC1 (centres unmarked) [Example 82, 3-(6-(4-((4-(2-methyl-6-(4-(trifluoromethyl)-1H-imidazol-1-yl)pyrimidin-4-yl)piperazin-1-yl)methyl-d2)benzyl)-2-oxobenzo[cd]indol-1(2H)-yl)piperidin-2,6-dione]"
20,50,"O=C1CCC(N2C(=O)c3cccc4c(Cc5ccc(CN6CCC(NC(=O)c7ccnc(-n8ccnc8)n7)CC6)cc5)ccc2c34)C(=O)N1 (centres unmarked) [Example 7, N-(1-(4-((1-(2,6-dioxopiperidin-3-yl)-2-oxo-1,2-dihydrobenzo[cd]indol-6-yl)methyl)benzyl)piperidin-4-yl)-2-(1H-imidazol-1-yl)pyrimidin-4-carboxamide]"
21,10,"O=C1CCC(N2C(=O)c3cccc4c(Cc5ccc(CN6CCN(c7ccnc(-n8cnc(C(F)(F)F)n8)n7)CC6)cc5)ccc2c34)C(=O)N1 (centres unmarked) [Example 39, 3-(2-oxo-6-(4-((4-(2-(3-(trifluoromethyl)-1H-1,2,4-triazol-1-yl)pyrimidin-4-yl)piperazin-1-yl)methyl)benzyl)benzo[cd]indol-1(2H)-yl)piperidin-2,6-dione]"
22,70,"Cc1ncc(-c2ncc(F)c(N3CCN(Cc4ccc(Cc5ccc6c7c(cccc57)C(=O)N6C5CCC(=O)NC5=O)cc4)CC3)n2)s1 (centres unmarked) [Example 67, 3-(6-(4-((4-(5-fluoro-2-(2-methylthiazol-5-yl)pyrimidin-4-yl)piperazin-1-yl)methyl)benzyl)-2-oxobenzo[cd]indol-1(2H)-yl)piperidin-2,6-dione]"
23,100,"O=C1CC[C@H](N2Cc3c(OCc4ccc(CN5CCN(CC6CCN(c7cccc(-n8ccnc8)n7)CC6)CC5)cc4)cccc3C2=O)C(=O)N1 [Example 17, (S)-3-(4-((4-((4-((1-(6-(1H-imidazol-1-yl)pyridin-2-yl)piperidin-4-yl)methyl)piperazin-1-yl)methyl)benzyl)oxy)-1-oxoisoindolin-2-yl)pyridin-2,6-dione]"

# From patent US20260272924A1, “ISOINDOLINE DERIVATIVE, BENZOINDOLE DERIVATIVE AND USE THEREOF” (SHANGHAI HELIOSON PHARMACEUTICAL CO., LTD., priority 2023, published 2026)
